According to patent publication US20050107386A1, “Methods of treating diseases and disorders by targeting multiple kinases” (priority 2003, published 2005):

System: HCT-116 cells
Experiment: SCID mouse/HCT-116 xenograft model
Conditions: for % Tumor Growth Inhibition: day 28; for TGD (500 mm^3): days to reach 500 mm^3; for TGD (1000 mm^3): days to reach 1000 mm^3

In the case of `CCc1c2c(nc3ccc(OC(=O)N4CCC(N5CCCCC5)CC4)cc13)-c1cc3c(c(=O)n1C2)COC(=O)[C@]3(O)CC.Cl` [Camptosar, reference compound], the “TGD (days to reach 1000 mm^3)” value (Table 3, i.p. 25 mg/kg q4d) was greater than 12 days, the “% Tumor Growth Inhibition” value (Table 3, i.p. 25 mg/kg q4d) was 95.4% and the “% Tumor Growth Inhibition” value (Table 5, i.p. 2.5 mg/kg q4d) was 66%. The “TGD (500 mm^3)” value (Table 5, i.p. 2.5 mg/kg q4d) was greater than 6 days, the “TGD (1000 mm^3)” value (Table 5, i.p. 2.5 mg/kg q4d) was greater than 10 days and the “% Tumor Growth Inhibition” value (Table 5, i.p. 10 mg/kg q4d) was 90%. For the same molecule, the “TGD (500 mm^3)” value (Table 5, i.p. 10 mg/kg q4d) was greater than 13 days and the “TGD (1000 mm^3)” value (Table 5, i.p. 10 mg/kg q4d) was greater than 10 days.
